The source of these data is patent publication US11229633B2, “Arimoclomol formulation” (Orphazyme A/S, priority 2014, dated 2022).

The target of one data set is T1, human OAT3 (Homo sapiens, UniProt Q8TCC7).
T1 construct: expressed in transfected cells; host or cells: MDCKII (protocol UPT-MDCKII-OAT3-E3S; control: parental MDCKII)
T1 sequence (Q8TCC7 1-542): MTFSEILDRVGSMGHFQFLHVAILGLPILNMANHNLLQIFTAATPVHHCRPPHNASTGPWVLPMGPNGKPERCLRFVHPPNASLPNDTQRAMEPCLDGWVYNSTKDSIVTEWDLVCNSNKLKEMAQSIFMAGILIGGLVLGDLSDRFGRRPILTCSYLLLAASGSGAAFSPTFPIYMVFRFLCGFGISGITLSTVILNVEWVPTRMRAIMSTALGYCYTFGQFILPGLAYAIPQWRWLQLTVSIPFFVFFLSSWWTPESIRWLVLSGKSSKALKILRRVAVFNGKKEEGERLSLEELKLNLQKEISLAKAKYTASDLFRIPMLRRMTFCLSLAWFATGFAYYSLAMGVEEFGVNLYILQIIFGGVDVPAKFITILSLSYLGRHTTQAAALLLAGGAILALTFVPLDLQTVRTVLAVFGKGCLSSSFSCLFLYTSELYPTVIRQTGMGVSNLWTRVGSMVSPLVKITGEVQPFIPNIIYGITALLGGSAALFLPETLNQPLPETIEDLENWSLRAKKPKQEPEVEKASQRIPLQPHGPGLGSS
Kind of data set: Uptake transporter inhibition assay, OAT3. The class given is in vitro ADME. Also noted: key to maximum inhibition: NIO: No interaction observed. The following applies: for maximum inhibition: 0.3-300 μM. On the procedure:
Uptake experiments were performed using CHO, MDCKII, or HEK293 cells stably expressing the respective uptake transporters.
Cells were cultured at 37±1° C. in an atmosphere of 95:5 air:CO2 and were plated onto standard 96-well tissue culture plates at the cell number described in table 4.
Before the experiment, the medium was removed and the cells were washed twice with 100 μl of HK buffer at pH 7.4 (prepared from Sigma chemicals, Sigma-Aldrich, St Louis, Mo.). Uptake experiments were carried out at 37±1° C. in 50 μl of HK buffer (pH 7.4) containing the probe substrate and the TA or vehicle control (water).
After the experiment, cells were washed twice with ice cold, 100 μl of HK buffer and lysed with 50 μl of 0.1 M NaOH (1 mM CaCl2) in 5% SDS in the case of OATP1B3). Fluo-3 transport (OATP1B3) was determined by measuring fluorescence using 485 nm and 520 nm as the excitation and emission wavelengths, respectively. Radiolabelled probe substrate transport was determined by measuring an aliquot (35 μl) from each well for liquid scintillation counting.
Uptake of the probe substrate in control cells provided background activity values for all data points. Incubation without TA or reference inhibitor (solvent only) provided 100% activity values. A reference inhibitor served as positive control for inhibition.
The amount of translocated probe substrate was determined for each well in cpm or RFU. Relative activities were calculated from the equation:
[formula] A: amount of translocated substrate in the presence of TA in transfected cells B: amount of translocated substrate in the presence of TA in control cells C: amount of translocated substrate in the presence of solvent in transfected cells D: amount of translocated substrate in the presence of solvent in control cells Calculation of Fold Accumulation Values
In uptake transporter inhibition assays, the IC50 (μM) was calculated, where applicable. […]

Data set [1] can be described thus: Stability at conventional extrusion temperature. The class given is physicochemical. The following applies: 100-200° C.

“Also recorded” adds a separate entry of the source.

`[O-][n+]1cccc(C(Cl)=NOCC(O)CN2CCCCC2)c1` (stereo not shown) [Arimoclomol, N-[2-hydroxy-3-(1-piperidinyl)-propoxy]-pyridine-1-oxide-3-carboximidoyl chloride]: the maximum inhibition result at human OAT3 (Table 2) and at human OAT3 (Table 5) was “NIO” each time. Also, the “Influence on OAT3-mediated probe substrate accumulation (in words)” value at human OAT3 (applied concentrations) is recorded as “did not influence; also recorded: not an inhibitor”. For the same compound, the “Stability at conventional extrusion temperature” value in data set [1] was “not stable”.
